The target of one assay is human PDE5A (Homo sapiens, UniProt O76074). The experiment in a line: PDE5 enzyme inhibitory assay (PDE Glo Phosphodiesterase Assay).
Assay [1] deals with conscious rabbit (length of uncovered penile mucosa). The experiment in a line: In vivo efficacy, conscious rabbit model of penile erection. To be noted: 3 mg/kg intravenous, SNP 0.2 mg/kg 5 min later, measured for an hour, SNP alone values subtracted. On the procedure: . SNP alone was also used as a control and the values obtained were subtracted from both the molecules).
Nitric oxide is the main neurotransmitter which mediates smooth muscle relaxation by activating the guanylate cyclise during penile erection, which in turn increases the cGMP level.
This solution was injected into the ear vein of a group of five healthy male rabbit (3-3.5 kg weight) in a volume of 0.5 ml/kg. The event was followed 5 minutes later by another equal volume saline injection containing Sodium nitroprusside (0.2 mg/kg), which acts as a donor of Nitric oxide (NO). Length of uncovered penile mucosa was measured with a sliding caliper at different time points for an hour after administration of the test compounds. The area under the curve (AUC) was calculated by Graph Pad Software. Controls experiments were performed with the SNP alone injections. […]

Method for human PDE5A: The assays were performed by following the manufacturer recommended protocol.
Data analysis was performed with GraphPad Prism®, version 5.00, for Windows using a sigmoidal dose-response (variable slope) equation. Each point represents an average of two replicates per concentration.

Regarding `CCCc1nn(C)c2c(=O)[nH]c(-c3cc(S(=O)(=O)N4CCC(=O)CC4)ccc3OCC)nc12` [Compound Aa, 5-(2-ethoxy-5-((4-oxopiperidin-1-yl)sulfonyl)phenyl)-1-methyl-3-propyl-1H-pyrazolo[4,3-d]pyrimidin-7(6H)-one], the IC50 on human PDE5A amounted to 0.8 nM. In assay [1], the “area under the curve (AUC) of length of uncovered penile mucosa” value was 722. Consider `CCCc1nn(C)c2c(=O)[nH]c(-c3cc(S(=O)(=O)N4CCC(O)CC4)ccc3OCC)nc12` [Compound Ab, 5-(2-ethoxy-5-((4-hydroxypiperidin-1-yl)sulfonyl)phenyl)-1-methyl-3-propyl-1H-pyrazolo[4,3-d]pyrimidin-7(6H)-one], for which the half-inhibitory concentration (IC50) on human PDE5A worked out at 4.8 nM. For `CCCc1nn(C)c2c(=O)[nH]c(-c3cc(S(=O)(=O)N4CCN(C)CC4)ccc3OCC)nc12` [Sildenafil, reference compound], in assay [1], the “area under the curve (AUC) of length of uncovered penile mucosa” value stood at 330.

For the origin of these results see patent publication US10017511B2, “Pyrazolopyrimidinones for the treatment of impotence and process for the preparation thereof” (COUNCIL OF SCIENTIFIC & INDUSTRIAL RESEARCH, priority 2014, dated 2018).
